Target: Enteropeptidase (Homo sapiens, UniProt P98073)
Experiment: Enteropeptidase Inhibition Assay: The inhibitory activity of the enteropeptidase inhibitor synthesized using the purified Recombinant Human Enteropeptidase and the substrate Acetyl-Asp-Asp-Asp-Asp-Lys-AFC (BioVision) was measured. 7.2 ng/mL of Enteropeptidase diluted with a buffer (20 mM Tris, 50 mM NaCl, pH 7.5) in a 96 well plate (Costar), 30 μM of Acetyl-Asp-Asp-Asp-Asp-Lys-AFC, several concentrations of Enteropeptidase inhibitors (1% DMSO concentration) were dispensed such that a final volume was 100 μL, and then the enzyme reaction was carried out at 30° C. for 1 hour. At this time, 1% DMSO, a substrate and Enteropeptidase instead of the compound were dispensed onto positive control wells, and 1% DMSO and a substrate were dispensed onto negative control wells. The enzyme reaction was started using an excitation wavelength of 380 nm and an emission wavelength of 500 nm in a fluorescence spectrometer, and then the rate of increase in fluorescence (milli-units per min) between 20 and 60 minutes was measured.

Enteropeptidase, sequence (P98073 2-784 limits assumed): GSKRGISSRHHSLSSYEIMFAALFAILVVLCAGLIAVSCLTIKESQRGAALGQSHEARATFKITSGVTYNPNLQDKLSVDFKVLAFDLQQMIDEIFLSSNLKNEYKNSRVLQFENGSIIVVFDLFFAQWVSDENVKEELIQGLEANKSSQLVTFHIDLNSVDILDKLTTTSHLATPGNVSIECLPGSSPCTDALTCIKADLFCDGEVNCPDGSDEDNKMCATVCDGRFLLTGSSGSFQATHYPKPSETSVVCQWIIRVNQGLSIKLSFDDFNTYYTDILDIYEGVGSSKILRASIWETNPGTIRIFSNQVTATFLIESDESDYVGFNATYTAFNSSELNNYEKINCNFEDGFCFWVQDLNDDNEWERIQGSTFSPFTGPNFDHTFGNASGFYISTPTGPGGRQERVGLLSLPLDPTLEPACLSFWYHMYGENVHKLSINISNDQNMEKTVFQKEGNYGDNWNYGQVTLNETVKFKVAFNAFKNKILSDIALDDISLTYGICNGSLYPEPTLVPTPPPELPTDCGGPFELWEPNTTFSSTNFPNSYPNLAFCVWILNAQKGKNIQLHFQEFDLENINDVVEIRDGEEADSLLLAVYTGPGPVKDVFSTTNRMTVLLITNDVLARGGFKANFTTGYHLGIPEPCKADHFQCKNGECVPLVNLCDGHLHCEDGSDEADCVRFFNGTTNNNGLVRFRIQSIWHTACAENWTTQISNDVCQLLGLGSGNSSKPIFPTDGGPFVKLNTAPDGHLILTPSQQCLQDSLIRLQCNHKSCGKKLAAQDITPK
Enteropeptidase, sequence (P98073 785-1019 limits assumed): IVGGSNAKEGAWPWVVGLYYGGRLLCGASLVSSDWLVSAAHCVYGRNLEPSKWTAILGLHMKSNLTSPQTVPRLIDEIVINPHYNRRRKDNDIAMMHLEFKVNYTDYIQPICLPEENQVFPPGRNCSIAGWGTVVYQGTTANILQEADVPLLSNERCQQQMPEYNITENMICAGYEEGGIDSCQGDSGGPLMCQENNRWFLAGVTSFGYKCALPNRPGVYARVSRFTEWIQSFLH

| SMILES | Ki [nM] |
| --- | --- |
| CCN(CCC(=O)O)c1ncc(C(=O)Oc2ccc(C(=N)N)cc2F)s1 | 0.68 |
| N=C(N)c1ccc(OC(=O)c2cnc(N3CCC(C(=O)N[C@@H](CC(=O)OCc4ccccc4)C(=O)OCc4ccccc4)CC3)s2)c(F)c1 | 8.2 |
